In patent publication US5204361A, “Method for treating laminitis in equine livestock” (priority 1988, dated 1993):
Like-named read-outs stand apart in the source and are kept apart here.

Key:
[1] = test system: caecal and large colon contents; assay: Experiment 2 Part 3: in vitro screening at 2 ug/ml in digesta of four horses; format: cell-based, horse; settings: 2 ug antibiotic/ml, 15 mg cornstarch/ml, 20 hour incubation
Method: (§1) Digesta was taken from the caecum and large colon from recently slaughtered animals and was filtered through nylon gauze (approximately 60 micron apertures). The fluid was diluted 1:1 with a buffer solution described by Bales et al. (1976) and incubated with wheat "corn starch" (with or without antibiotics) at 37° for 16 to 20 hours. Aliquots of digesta diluted with buffer (50 ml) were added to 100 ml conical flasks. The flasks were flushed with carbon dioxide before being sealed with a tightly fitting rubber cap. A 21 gauge needle was inserted through the rubber seal in order to allow gas to escape during the fermentation. On removal from the incubator sub-samples were immediately taken to measure L-lactic acid concentration and pH. For each treatment or level of antibiotic three replicate incubation flasks were used.
All four of the antibiotics, listed above, were incubated as previously described to provide 2 ug antibiotic and 15 mg cornstarch per ml incubation mixture. There was one flask per test and each antibiotic was incubated in digesta from both the caecum and the large colon taken from each of 4 animals. Samples of incubation fluid were taken following a 20 hour incubation and were analysed for L-lactate and pH.

[2] = test system: mixed caecal/large colon digesta; assay: Experiment 2 Part 1: in vitro fermentation of digesta with cornstarch, avoparcin, virginiamycin, flavomycin 2-32 ug/ml; format: cell-based, horse; set-up: Lactate / Total VFA: unit not given here; settings: for pH / Acet:Prop / Lactate / Total VFA / control of lactic acid build-up: cornstarch 15 mg/ml; for pH / Acet:Prop / Lactate / Total VFA: mean
Method: as §1
A range of concentrations of cornstarch providing: 0, 5, 10, 15 and 20 mg/ml diluted digesta (i.e. from 0 to 1 g cornstarch/conical flask) were tested to determine the amount required to produce a pattern of fermentation with high levels of lactic acid. Flasks were also prepared with cornstarch mixed with antibiotic premixes to provide 15 mg cornstarch/ml incubation mixture and 0, 2, 4, 8, 16 and 32 ug of avoparcin, virginiamycin or flavomycin per ml incubation mixture. After approximately 16 hour incubation at 37° samples were taken to measure lactic acid, VFA and pH.

[3] = test system: caecal/large colon digesta; assay: Experiment 2 Part 2: in vitro fermentation with cornstarch, antibiotics at or below 2 ug/ml; format: cell-based, horse; settings: cornstarch 0.75 g per flask, 16 hours, mean
Method: as §1
Incubation flasks were set up as described above with cornstarch (0.75 g) containing virginiamycin, flavomycin or zinc-bacitracin a levels to provide: 0, 0.25, 0.5, 1.0 and 2 ug antibiotic/ml incubation mixture. These flasks were incubated for 16 hours. Flasks were also set up with 0.75 g cornstarch and no antibiotic equipped with a tap and sampling tube in order to take samples from the incubation vessels at various times during the fermentation. Samples were taken at the start of the incubation and at 2, 4, 6, 8, 12 and 24 h. These were analysed for L-lactate concentration and pH.

sheep = settings: cited from earlier work
[4] = test system: horses dosed with 15 g wheat/kg liveweight; settings: for D-lactic acid, caecum / D-lactic acid, large colon / L-lactic acid, large colon / Lameness (Obel grade): avoparcin 120 mg/kg wheat; for D-lactic acid, caecum / D-lactic acid, large colon / L-lactic acid, large colon: 24 hours after wheat; for Lameness (Obel grade): within 24 hours of wheat
Method: Four horses were dosed with 15 g wheat/kg liveweight. The wheat given to two of the animals contained 120 mg avoparcin/kg wheat, and the other two animals received the wheat without medication. Animals were examined prior to dosing and at intervals of eight hours after the dosing for a period of 24 hours. At these times temperature and heart rate were measured, and a sample of venous blood was taken for the measurement of pH, blood gases, bicarbonate, D-lactate and L-lactate. Animals were also examined for any signs of lameness according to the criteria of Obel (1948) as summarized by Garner et al (1977). After 24 hours all animals were slaughtered and samples of digesta were taken from the caecum and large colon for analysis of lactic acid, VFA and avoparcin concentration.

cattle = settings: Nagaraja et al. (1981); cited from earlier work
[5] = test system: caecal/large colon digesta; assay: Experiment 2 Part 5: efficacy of tylosin relative to virginiamycin, digesta incubated with glucose; format: cell-based, horse; settings: antibiotic 1.00 μg/ml, 37°, 20 hours, mean
[6] = test system: caecal/large colon digesta; assay: as above; format: cell-based, horse; settings: for L-lactate: digesta incubated with glucose, 37°, 20 hours, mean
Method: An in vitro fermentation experiment was conducted to determine the efficacy of tylosin relative to virginiamycin. Samples of strained caecal and large colon digesta (16 ml) were incubated with glucose solution (60 ug/ml) (4 ml) and varying concentrations of either tylosin or virginiamycin representing […], 2.0, 4.0 ug of tylosin or virginiamycin per ml. The 25 ml containers were incubated at 37° for 20 hours. There were three replicates per treatment.

horses = settings: cited from earlier work
[7] = Horse 1, mean of caecum and large colon
[8] = Horse 2, mean of caecum and large colon
[9] = Horse 3, mean of caecum and large colon
[10] = Horse 4, mean of caecum and large colon
[11] = antibiotic 2 μg/ml, approx 16 hour incubation at 37°
[12] = antibiotic 2 μg/ml, approx 16 hour incubation
[13] = antibiotic 4 μg/ml, approx 16 hour incubation
[14] = antibiotic 8 μg/ml, approx 16 hour incubation
[15] = antibiotic 16 μg/ml, approx 16 hour incubation
[16] = antibiotic 32 μg/ml, approx 16 hour incubation

flavomycin (bambermycin)
pH ([1]; Horse 1): 4.88
L-lactate [1, 7]: 31.8 mmol/L
pH ([1]; Horse 2): 4.54
L-lactate [1, 8]: 55.6 mmol/L
pH ([1]; Horse 3): 4.98
L-lactate [1, 9]: 17.9 mmol/L
pH ([1]; Horse 4): 5.07
L-lactate [1, 10]: 23.7 mmol/L
L-lactate ([1]; Mean of 4 horses): 32.2 mmol/L
pH ([1]; Mean of 4 horses): 4.86
pH [2, 11]: 6.57
Acet:Prop [2, 12]: 3.4
Lactate [2, 12]: 0.0
Total VFA [2, 12]: 88.9
Acet:Prop [2, 13]: 4.6
Lactate [2, 13]: 0.0
Total VFA [2, 13]: 93.7
pH [2, 13]: 6.52
Acet:Prop [2, 14]: 5.7
Lactate [2, 14]: 0.0
Total VFA [2, 14]: 90.0
pH [2, 14]: 6.48
Acet:Prop [2, 15]: 5.8
Lactate [2, 15]: 0.0
Total VFA [2, 15]: 85.6
pH [2, 15]: 6.47
Acet:Prop [2, 16]: 5.8
Lactate [2, 16]: 0.2
Total VFA [2, 16]: 93.7
pH [2, 16]: 6.41
control of lactic acid build-up ([2]; at concentrations as low as 2 g/ml): total control
L-lactate ([3]; antibiotic 0.25 μg/ml): 12.4 mmol/L
pH ([3]; antibiotic 0.25 μg/ml): 5.69
L-lactate ([3]; antibiotic 0.50 μg/ml): 7.3 mmol/L
pH ([3]; antibiotic 0.50 μg/ml): 5.67
L-lactate ([3]; antibiotic 1.00 μg/ml): 9.9 mmol/L
pH ([3]; antibiotic 1.00 μg/ml): 5.67
L-lactate ([3]; antibiotic 2.00 μg/ml): 11.7 mmol/L
pH ([3]; antibiotic 2.00 μg/ml): 5.56

thiopeptin
control of wheat-induced acidosis (sheep; sheep, Muir et al (1980)): control of wheat-induced acidosis

avoparcin
pH ([1]; Horse 1): 5.12
L-lactate [1, 7]: 19.8 mmol/L
pH ([1]; Horse 2): 4.57
L-lactate [1, 8]: 67.9 mmol/L
pH ([1]; Horse 3): 4.75
L-lactate [1, 9]: 34.5 mmol/L
pH ([1]; Horse 4): 5.15
L-lactate [1, 10]: 20.0 mmol/L
L-lactate ([1]; Mean of 4 horses): 35.5 mmol/L
pH ([1]; Mean of 4 horses): 4.90
Lactic acid concentrations, large colon digesta versus caecal contents ([4]; animals given avoparcin): appreciably lower in the large colon digesta
D-lactic acid, caecum ([4]; horse 2): 33 mmol/L
D-lactic acid, large colon ([4]; horse 2): 2 mmol/L
L-lactic acid, large colon ([4]; horse 2): 2 mmol/L
Lameness (Obel grade) ([4]; horse 2): Obel 2
D-lactic acid, caecum ([4]; horse 4): 34 mmol/L
D-lactic acid, large colon ([4]; horse 4): 11 mmol/L
L-lactic acid, large colon ([4]; horse 4): 10 mmol/L
Lameness (Obel grade) ([4]; horse 4): Obel 2
concentrations of the antibiotic, caecum versus large colon ([4]; in vivo): lower in the caecum than in the large colon
Lactic acid accumulation in the hind-gut and lameness ([4]; wheat slurry with and without avoparcin): developed irrespective of the presence of avoparcin
pH [2, 11]: 6.14
Acet:Prop [2, 12]: 2.9
Lactate [2, 12]: 8.9
Total VFA [2, 12]: 102.6
Acet:Prop [2, 13]: 2.8
Lactate [2, 13]: 12.0
Total VFA [2, 13]: 100.9
pH [2, 13]: 6.17
Acet:Prop [2, 14]: 3.3
Lactate [2, 14]: 11.0
Total VFA [2, 14]: 82.1
pH [2, 14]: 6.33
Acet:Prop [2, 15]: 3.5
Lactate [2, 15]: 10.3
Total VFA [2, 15]: 87.1
pH [2, 15]: 6.40
Acet:Prop [2, 16]: 3.6
Lactate [2, 16]: 15.1
Total VFA [2, 16]: 89.8
pH [2, 16]: 6.43
control of lactic acid build-up ([2]; even at 32 µg/ml): only partially controlled
control of lactic acid ([2]; even at the highest concentrations (approx 32 times the minimum effective dose of virginiamycin)): failed to completely control lactic acid
control of lactic acid (sheep; sheep dosed with round wheat, Aitchison et al. (1986)): particularly effective

bacitracin zinc [Zn-bacitracin]
pH ([1]; Horse 1): 4.91
L-lactate [1, 7]: 26.8 mmol/L
pH ([1]; Horse 2): 4.59
L-lactate [1, 8]: 62.5 mmol/L
pH ([1]; Horse 3): 4.76
L-lactate [1, 9]: 35.1 mmol/L
pH ([1]; Horse 4): 5.11
L-lactate [1, 10]: 22.2 mmol/L
L-lactate ([1]; Mean of 4 horses): 36.6 mmol/L
pH ([1]; Mean of 4 horses): 4.84
L-lactate ([3]; antibiotic 0.25 μg/ml): 20.6 mmol/L
pH ([3]; antibiotic 0.25 μg/ml): 5.64
L-lactate ([3]; antibiotic 0.50 μg/ml): 17.8 mmol/L
pH ([3]; antibiotic 0.50 μg/ml): 5.86
L-lactate ([3]; antibiotic 1.00 μg/ml): 15.9 mmol/L
pH ([3]; antibiotic 1.00 μg/ml): 5.68
L-lactate ([3]; antibiotic 2.00 μg/ml): 14.7 mmol/L
pH ([3]; antibiotic 2.00 μg/ml): 5.59

CC[C@@H](C(=O)[C@@H](C)[C@@H](O)[C@H](C)CCc1ccc(C)c(O)c1C(=O)O)[C@H]1O[C@](CC)([C@H]2CC[C@](O)(CC)[C@H](C)O2)C[C@@H]1C [lasalocid]
control of lactic acidosis (cattle): lactic acidosis could be controlled

CC[C@H]1OC(=O)C[C@@H](O)[C@H](C)[C@@H](O[C@@H]2O[C@H](C)[C@@H](O[C@H]3C[C@@](C)(O)[C@@H](O)[C@H](C)O3)[C@H](N(C)C)[C@H]2O)[C@@H](CC=O)C[C@@H](C)C(=O)/C=C/C(C)=C/[C@@H]1CO[C@@H]1O[C@H](C)[C@@H](O)[C@@H](OC)[C@H]1OC [Tylosin, tylosin]
L-lactate [5]: 45.1 mmol/L
L-lactate ([6]; antibiotic 0.50 μg/ml): 122 mmol/L
L-lactate ([6]; antibiotic 2.00 μg/ml): 38.7 mmol/L
L-lactate ([6]; antibiotic 4.00 μg/ml): 11.7 mmol/L
reduction in lactic acid levels compared with virginiamycin ([6]; at the concentrations used (0.5-4 ug/ml)): did not cause the same reduction
concentration of lactic acid during the fermentation of soluble carbohydrate ([6]; higher levels of tylosin than virginiamycin required for similar reduction): can reduce the concentration of lactic acid

CC[C@@]1([C@@H]2O[C@@H]([C@H]3O[C@@](O)(CO)[C@H](C)C[C@@H]3C)C[C@@H]2C)CC[C@H]([C@]2(C)CC[C@]3(C[C@H](O)[C@@H](C)[C@@H]([C@@H](C)[C@@H](OC)[C@H](C)C(=O)O)O3)O2)O1 [monensin]
toxicity on the host (horses): highly toxic
control of lactic acidosis (cattle): lactic acidosis could be controlled
